We go through 7 compounds from patent US20150004100A1, “HETEROCYCLIC COMPOUNDS AS IMAGING PROBES OF TAU PATHOLOGY” (GE HEALTHCARE LIMITED, priority 2011, published 2015).

The fraction unbound is free concentration divided by total concentration. By tissue uptake is commonly meant the share of the injected amount in each gram of the tissue.

Data set [1] relates to tau aggregates over Aβ1-42 amyloid. As to conditions: in vitro, Kudo et al. 2005; cited from earlier work.
The test system of data set [2] is tau+ NFTs. Briefly: Tissue binding assay (fluorescence), NFTs in human AD tissue sections. Set-up: key to NFTs (staining): −: No staining; +: weak staining; ++: moderate staining; +++: intense staining. As to conditions: for NFTs (staining): Table 2, 100 μM, human AD tissue; for Binding to NFTs (in words): high test concentration, AD tissue. The procedure:
(§1) Human brain tissue samples from the entorhinal cortex of patients with Alzheimer's disease (AD) and healthy controls were obtained from Tissue Solutions (Tissue Solutions Ltd, Glasgow, UK). Tissue samples were collected after informed written consent, and specimens were dissected at the tissue bank and snap-frozen for cryopreservation at a time interval of between 3 and 18 h after death. The frozen tissue was embedded in TissueTek® (VWR) and sectioned using a Microm HM560 cryostat (Thermo Scientific). Serial 12 μm sections were mounted onto SuperFrost®+ glass slides (VWR) and stored a −70° C.
(§2) The binding of compounds to tau+NFTs and Aβ+ plaques in human AD tissue were evaluated based on fluorescence.
(§3) Briefly, tissue sections were defrosted and fixed in ice-cold 70% ethanol. All tissue sections were rinsed with PBS after fixation and between all subsequent incubation steps. To quench autofluorescence, tissue sections were incubated first with 0.25% KMnO4 (Sigma-Aldrich) in PBS for 12 min, and then with 0.1% […]/0.1% oxalic acid (both reagents from Sigma-Aldrich) in PBS for 1 min. The tissue sections were blocked with 2% BSA in PBS for 10 min, and then incubated with the test compounds at 100 μM concentration for 1 h at RT. […] Finally the tissue sections were rinsed in PBS, and mounted in SlowFade® mounting media (Invitrogen). Images of labelled tissue sections were captured using a Nikon digital camera connected to a Leica microscope and using the NIS Elements D software (Nikon). Images were further processed with the Photoshop® software (Adobe).

Data set [3] concerns Aβ+ plaques. Briefly: Tissue binding assay (fluorescence), plaques in human AD tissue sections. Set-up: key to Plaques (staining): −: No staining; +: weak staining; ++: moderate staining; +++: intense staining. The note with it: for Plaques (staining): Table 2, 100 μM, human AD tissue; for Binding to plaques (in words): high test concentration, AD tissue. As to the method:
as §1, §2, §3

Data set [4] has as its system tau+ NFTs. The data set can be described thus: Tissue binding assay (fluorescence), NFTs in human AD tissue sections. The arrangement: key to NFTs (staining): −: No staining; +: weak staining; ++: moderate staining; +++: intense staining. As to conditions: for NFTs (staining): Table 2, human AD tissue; for Binding preference for NFTs (in words): lower test concentrations, AD tissue.

In data set [5] the test system is Aβ+ plaques. The data set can be described thus: Tissue binding assay (fluorescence), plaques in human AD tissue sections. Set-up: key to Plaques (staining): −: No staining; +: weak staining; ++: moderate staining; +++: intense staining. The note with it: for Plaques (staining): Table 2, human AD tissue.
Data set [6] has as its system NFTs and plaques. The note with it: literature reports; cited from earlier work.
For data set [7] the following is noted: literature reports; cited from earlier work.
Data set [8] is described as follows: PAMPA (parallel artificial membrane permeability assay). It is filed as in vitro ADME. As to conditions: 10 μM, 5 h at RT; criterion >−6. As to the method:
The PAMPA assay is used to determine how well a compound crosses a cell membrane by measuring its passage through a phosphotidyl choline barrier. A permeability coefficient >−6 indicates high permeability across lipid membranes and is indicative of a compounds ability to cross the blood brain barrier.
A 10 μM solution was incubated on a PDVF membrane coated with a 2% phoshotidyl choline solution for 5 h at RT. Membrane penetration was measured using LC-MS.

Data set [9] can be described thus: Protein binding assay, human plasma (rapid equilibrium dialysis). It is filed as in vitro ADME. The note with it: % bound, criterion <99%. As to the method:
(§4) The protein binding assays provide an estimate of free (unbound) fraction of the compound in the blood or brain in vivo. […] The desirable criterion for this assay is <99% of test compound bound.
(§5) Test compounds were first dissolved in DMSO to a concentration of 50 μM. This was followed by incubation in samples of human plasma and rat brain homogenates (final test concentration 1 μM). Binding of compounds to proteins was determined in the samples by rapid equilibrium dialysis after 5 and 30 min of incubation.
In general terms: Equilibrium dialysis compares concentrations on both sides of a semipermeable membrane.

The nature of data set [10]: Protein binding assay, rat brain homogenates (rapid equilibrium dialysis). It counts as in vitro ADME. As to conditions: rat brain homogenate, % bound, criterion <99%. As to the method:
as §4, §5

The subject of data set [11] is rat liver microsomes. Briefly: Liver microsome stability assay, rat. It counts as in vitro ADME. The note with it: 1 μM, 37° C., parent compound remaining, criterion >50%. The procedure: (§6) The liver microsome stability assay provides an estimate of compound stability and rate of metabolism in vivo. The desirable criterion for this assay is >50% parent compound after 30 min.
(§7) A 1 μM compound solution was incubated with rat or human liver microsomes (20 mg/ml) at 37° C. and the amount of parent compound remaining following the incubation was determined after 5 and 30 min of incubation using LC-MS.
(In general: Liver microsomes are vesicles of endoplasmic reticulum, rich in cytochrome P450 enzymes.)

The test system of data set [12] is human liver microsomes. The data set can be described thus: Liver microsome stability assay, human. The note with it: 1 μM, 37° C., parent compound remaining, criterion >50%. It counts as in vitro ADME. As to the method:
as §6, §7

A short description of data set [13]: In vivo cold bio-distribution in rat (brain uptake, LC-MS). The procedure: All animal studies were in compliance with local rules and regulations. Test compounds were administered by intravenous (i.v) injection through the tail vein of naïve male Wistar rats (50 μg test compound/rat). The animals were sacrificed by dislocation of the neck at 2, 10, 30, 60 min post-injection (p.i). The brain and plasma were collected from each animal. The concentration of test compound was measured in the plasma and brain homogenates using LS-MS, and calculated as % compound/g (% ID/g).

Entries after “also recorded” stand apart in the source; their conditions may differ.

For the compound `CNc1ccc(-c2ccc3ccccc3n2)cc1` [BF-158], the “Selectivity for tau aggregates over Aβ1-42 amyloid” value in data set [1] was “threefold”.
With `Nc1ccc(-c2ccc3ccccc3n2)cc1` [BF-170], the “Selectivity for tau aggregates over Aβ1-42 amyloid” value in [1] was “threefold”.
As for `[11CH3]Nc1ccc(-c2nc3ccc(O)cc3s2)cc1` [PiB, Pittsburgh compound B, reference compound], the results for the “NFTs (staining)” value in [2], in data set [4] (1 μM) and in data set [4] (10 μM) were “+++”, “−” and “+”, respectively. For the same compound, in data set [2], the “Binding to NFTs (in words)” value is “detected to both NFTs and plaques”. Further, the entries for the “Plaques (staining)” value in data set [3], in data set [5] (1 μM) and in [5] (10 μM) were “+++”, “++” and “++”, respectively. The “Binding to plaques (in words)” value in data set [3] is “detected to both NFTs and plaques”; in data set [5] (lower test concentrations, AD tissue), “only bound to plaques”. For the same compound, the “Reported binding to NFTs / plaques (in words)” value in data set [6] is given as “bind with a preference to Aβ+ plaques”. Further, the “Reported brain uptake in vivo (in words)” value in data set [7] is recorded as “high brain uptake in vivo”.
For the compound `CC(=C(C#N)C#N)c1ccc2cc(N(C)CCF)ccc2c1` [FDDNP, 2-(1-(2-(N-(2-fluoroethy)-N-methylamino)-naphthalene-6-yl)-ethylidende)-malononitrile, reference compound], the “NFTs (staining)” value in data set [2] was “+++”; in data set [4] (1 μM), “+”; in data set [4] (10 μM), “++”. In addition, the “Binding to NFTs (in words)” value in data set [2] was “detected to both NFTs and plaques”. Moreover, the “Plaques (staining)” value was “+++” in data set [3], “+” in data set [5] (1 μM) and “++” in data set [5] (10 μM). In addition, the “Binding to plaques (in words)” value in data set [3] was “detected to both NFTs and plaques”. Further, the “Reported binding to NFTs / plaques (in words)” value in [6] is “binds to both NFTs and plaques”.
On to `CC(C)NC(=O)c1nn(-c2ccc(Cl)cc2)c(=O)c2c(N)scc12` [ATPZ, reference compound], for which the figures for the “NFTs (staining)” value in [2], in [4] (1 μM) and in data set [4] (10 μM) were “+++”, “+” and “++”, respectively. In addition, the “Plaques (staining)” value is recorded as “+” in data set [3], “−” in data set [5] (1 μM) and “−” in data set [5] (10 μM). For the same compound, in data set [8], the “PAMPA Log Pe” value is −5.24. Moreover, the fraction unbound at 1 μM in data set [9] stood at 0.0098; in data set [10], 0.0906. For the same compound, in data set [11], the “Liver stability Rat (% PCP) 5 min” value amounted to 97.06 % PCP. The “Liver stability Rat (% PCP) 30 min” value in [11] is 70.19 % PCP. Further, the “Liver stability Human (% PCP) 5 min” value in data set [12] is 98.9 % PCP. For the same compound, the “Liver stability Human (% PCP) 30 min” value in data set [12] is 68.29 % PCP. The “Reported brain uptake in vivo (in words)” value in data set [7] was “high brain uptake in vivo”.
Turning to `CC(C)NC(=O)c1nn(-c2ccc(OCCF)cc2)c(=O)c2c(N)scc12` [Compound 38], the “NFTs (staining)” value in [2] is on record as “+++”; in data set [4] (1 μM) it was “+”; in data set [4] (10 μM) it was “++”. Moreover, the “Binding to NFTs (in words)” value in data set [2] was “binds to both NFTs (A) and plaques (B); also recorded: bind to both NFTs and plaques”. The “Plaques (staining)” value is recorded as “++” in [3], “−” in [5] (1 μM) and “+” in data set [5] (10 μM). The “Binding to plaques (in words)” value in [3] was “binds to both NFTs (A) and plaques (B); also recorded: bind to both NFTs and plaques”. Moreover, the “PAMPA Log Pe” value in data set [8] was −5.02. In addition, the results for the fraction unbound at 1 μM in [9] and in data set [10] were 0.0642 and 0.428, respectively. Further, the “Liver stability Rat (% PCP) 5 min” value in [11] is on record as 81.7 % PCP. For the same compound, in [11], the “Liver stability Rat (% PCP) 30 min” value came out at 56.4 % PCP. Moreover, in data set [12], the “Liver stability Human (% PCP) 5 min” value amounted to 87.2 % PCP. For the same compound, the “Liver stability Human (% PCP) 30 min” value in data set [12] was determined as 74.4 % PCP. The tissue uptake at 2 min in data set [13] (male, Wistar, rat, brain, iv, 50 μg/rat, 2 min p.i.) is > 0.2 %ID/g. In [13] (male, Wistar, rat, brain, iv, 50 μg/rat, 10 min p.i.), the tissue uptake at 10 min was found to be 0.081 %ID/g. Also, the tissue uptake at 30 min in data set [13] (male, Wistar, rat, brain, iv, 50 μg/rat, 30 min p.i.) stood at 0.021 %ID/g. The compound further returned a tissue uptake at 60 min in data set [13] (male, Wistar, rat, brain, iv, 50 μg/rat, 60 min p.i.) of 0.011 %ID/g. Moreover, in [13] (rat brain, 2 min vs 30 min p.i.), the “Clearance ratio 2:30 min” value was found to be 13.3. For the same compound, the “Brain uptake and clearance (in words)” value in data set [13] (rat, from clearance ratio) is “rapid brain uptake followed by rapid clearance”. In addition, the “Brain uptake % ID/g p.i” value in [13] (rat, i.v., 2 min p.i.) is 0.28 % ID/g. For the same compound, the “Binding preference for NFTs (in words)” value in [4] is “binds preferentially to NFTs; also recorded: bind with a preference for NFTs”.
With `CC(C)NC(=O)c1nn(-c2ccc([N+](=O)[O-])cc2)c(=O)c2c(N)scc12` [Compound 105], in data set [2], the “NFTs (staining)” value is “++”; the “Binding to NFTs (in words)” value is “binds to NFTs (C, D) and plaques (D); also recorded: bind to both NFTs and plaques”. Moreover, in data set [3], the “Plaques (staining)” value is recorded as “++”; the “Binding to plaques (in words)” value was “binds to NFTs (C, D) and plaques (D); also recorded: bind to both NFTs and plaques”. The “PAMPA Log Pe” value in data set [8] was −5.10. The compound also had a fraction unbound at 1 μM in data set [9] of 0.02. The compound further had a fraction unbound at 1 μM in [10] of 0.112. Further, in [11], the “Liver stability Rat (% PCP) 5 min” value was 81.29 % PCP and the “Liver stability Rat (% PCP) 30 min” value was 58.8 % PCP. Further, in data set [12], the “Liver stability Human (% PCP) 5 min” value is 91.5 % PCP and the “Liver stability Human (% PCP) 30 min” value was 73.2 % PCP. In data set [4] (1 μM), the “NFTs (staining)” value is reported as “−”. For the same compound, the “NFTs (staining)” value in data set [4] (10 μM) is “+”. For the same compound, the “Binding preference for NFTs (in words)” value in data set [4] is given as “binds preferentially to NFTs; also recorded: bind with a preference for NFTs”. Also, the “Plaques (staining)” value in data set [5] (10 μM) is “−”.
